Assay results as given in US6403597B1, “Administration of phosphodiesterase inhibitors for the treatment of premature ejaculation” (Vivus, Inc., priority 1997, dated 2002).

Columns and labels:
[1] = system: heterosexual men suffering from primary premature ejaculation; conditions: male, human, in vivo, 4 weeks; for No. patients with side effects / patients with side effects (%): po
Procedure: (§1) A double-blind randomized crossover study was performed with 31 heterosexual men suffering from primary premature ejaculation, defined for the purpose of the study as an intravaginal ejaculation latency time (IVELT) of less than 2 minutes. Exclusion criteria included the following: (a) history of a psychiatric disorder; (b) current physical illness; (c) previous surgery or drug therapy with an active agent known to affect sexual function; (d) current substance abuse; (e) patients with secondary premature ejaculation combined with erectile dysfunction. All patients were asked not to use condoms or topical penile applications.
(§2) Treatment phases comprised five four-week consecutive treatment periods, each separated by a two-week washout period. […] The patients were randomly assigned to receive clomipramine hydrocloride (25 mg), sertraline hydrochloride (50 mg), paroxetine hydrochloride (20 mg), or sildenafil citrate (50 mg), or instructed to use the pause-squeeze technique developed by Masters and Johnson (Masters and Johnson, Human Sexual Inadequacy, Little, Brown & Company, Boston, Mass., 1970). The drugs were administered as needed 3 to 5 hours before planned intercourse and not more than twice a week. The pause-squeeze technique was used during intercourse. Each patient was randomly assigned to receive any of the available treatments as the first treatment and a sequence of treatment regimens. The assignment was unknown by the patient. Subjects were asked to complete a questionnaire regarding intravaginal ejaculation latency time of the last two consecutive experiences of intercourse, frequency of intercourse and possible side effects. The first nine items of the sexual satisfaction questionnaire designed by Althof et al. (Althof et al.(1999), “EDITS: Development of Questionnaires for Evaluating Satisfaction with Treatment for Erectile Dysfunction,” Urology 53:[…]) was used to measure the degree of sexual satisfaction, with higher scores indicating greater satisfaction. All measurements were obtained before treatment, after each treatment and after each washout period. Twenty healthy men who reported a sexual history free of symptoms of premature ejaculation served as a control group.
(§3) Statistical analysis: The variables in this study were statistically processed using the SPSS program for MicroSoft Windows®, standard version, release 8.0. The data were subjected to the Kolmogorov-Smirnov one-sample test, to test for normal distribution. […] Nonparametric statistical tests were used to assess differences in the measurements. Friedman's two-way analysis of variance was used for comparison between all the treatment periods. Wilcoxon signed rank test was used for evaluation of measures between baseline and after each treatment and also between every two treatment periods. The relationship between parameters was quantified by using the Spearman rank correlation coefficient. Chi-square and Fisher exact tests were used for comparison of the incidence of side effects among different treatments. Student's t-test and Chi-square test were used for comparison between the study group and control group. A two-tailed P-value <0.05 was considered significant.

[2] = system: heterosexual men suffering from primary premature ejaculation; assay: Double-blind randomized crossover study of orally administered active agents in treating premature ejaculation (efficacy measures); assay type: in vivo; design: Anxiety score, Median: scale not given here; conditions: for comparison between treatments in ejaculation latency time and sexual satisfaction score, in words: Wilcoxon signed rank test; for IVELT, Range / Anxiety score, Range: after four-week as-needed oral treatment; for IVELT, Range: baseline range 0.5-1.5; for Anxiety score, Range: baseline range 5-25; for Anxiety score, Median / Sexual satisfaction score, Median / Sexual satisfaction score, Range: after four-week treatment; for Anxiety score, Median: oral, as needed 3 to 5 hours before intercourse, clomipramine 25 mg, sertraline 50 mg, paroxetine 20 mg, sildenafil citrate 50 mg, baseline median 12; for median intravaginal ejaculation latency time: after four-week treatments, pretreatment median 1 minutes, all P<0.0001; for Sexual satisfaction score, Median / Sexual satisfaction score, Range: first nine items of EDITS questionnaire; for Sexual satisfaction score, Median: higher scores = greater satisfaction; for IVELT, Median: intravaginal ejaculation latency time after four-week as-needed oral treatment, baseline median 1; for delay of intravaginal ejaculation latency time, in words: treatment on an as needed basis; for IVELT during washout periods, Median / IVELT during washout periods, Range: two-week washout period after the treatment
Procedure: as §1, §2, §3

CN[C@H]1CC[C@@H](c2ccc(Cl)c(Cl)c2)c2ccccc21 [Sertraline, sertraline]
Side effects (no.): anorexia [1]: 1
Side effects (no.): drowsiness [1]: 1
Side effects (no.): nausea [1]: 1
No. patients with side effects [1]: 3
patients with side effects (%) [1]: 10.3%
comparison between treatments in ejaculation latency time and sexual satisfaction score, in words [2]: more or less equivalent to each other
IVELT, Range [2]: (1-10) min
Anxiety score, Range [2]: (5-22)
Anxiety score, Median [2]: 11
median intravaginal ejaculation latency time [2]: 3 min
Sexual satisfaction score, Median [2]: 10
Sexual satisfaction score, Range [2]: (0-31)
IVELT, Median [2]: 3 min
patients with prolongation of IVELT (%) ([2]; of 31 men): 71.2%
delay of intravaginal ejaculation latency time, in words [2]: statistically significant and clinically relevant delay
IVELT during washout periods, Median [2]: 1 min
IVELT during washout periods, Range [2]: (0.5-2) min

Fc1ccc([C@@H]2CCNC[C@H]2COc2ccc3c(c2)OCO3)cc1 [Paroxetine, paroxetine]
Side effects (no.): dry mouth [1]: 2
Side effects (no.): nausea [1]: 1
Side effects (no.): yawning [1]: 2
No. patients with side effects [1]: 5
patients with side effects (%) [1]: 17.2%
comparison between treatments in ejaculation latency time and sexual satisfaction score, in words [2]: superior to the pause-squeeze technique
comparison between treatments in ejaculation latency time and sexual satisfaction score, in words ([2]; listed as paroxetine): more or less equivalent to each other
IVELT, Range [2]: (2-10) min
Anxiety score, Range [2]: (5-23)
Anxiety score, Median [2]: 9
median intravaginal ejaculation latency time [2]: 4 min
Sexual satisfaction score, Median [2]: 12
Sexual satisfaction score, Range [2]: (0-29)
IVELT, Median [2]: 4 min
patients with prolongation of IVELT (%) ([2]; of 31 men): 80.6%
delay of intravaginal ejaculation latency time, in words [2]: statistically significant and clinically relevant delay
IVELT during washout periods, Median [2]: 1 min
IVELT during washout periods, Range [2]: (0.5-2) min

CCCc1nn(C)c2c(=O)[nH]c(-c3cc(S(=O)(=O)N4CCN(C)CC4)ccc3OCC)nc12 [Sildenafil, 5-[2-ethoxy-5-(4-methyl-1-piperazinylsulphonyl)phenyl]-1-methyl-3-n-propyl-1,6-dihydro-7H-pyrazolo[4,3-dipyrimidin-7-one]]
Side effects (no.): flushing [1]: 2
Side effects (no.): headache [1]: 2
Side effects (no.): nasal congestion [1]: 1
No. patients with side effects [1]: 5
patients with side effects (%) [1]: 17.9%
IVELT, Range [2]: (5-30) min
Anxiety score, Range [2]: (4-15)
Anxiety score, Median [2]: 8
median intravaginal ejaculation latency time [2]: 15 min
median IVELT, median sexual satisfaction score and median IVELT during the washout period, according to Friedman's test, in words ([2]; comparison between all treatment periods): significant increase
Sexual satisfaction score, Median [2]: 30
Sexual satisfaction score, Range [2]: (17-34)
effectiveness in the treatment of premature ejaculation, in words ([2]; in vivo): highly effective
IVELT, Median [2]: 15 min
patients with prolongation of IVELT (%) ([2]; of 31 men): over 90%
patients with prolongation of IVELT (number of patients) ([2]; of 31 men): 28 patients
patients with prolongation of IVELT (%) ([2]; of 31 men, listed as sildenafil): 90.3%
delay of intravaginal ejaculation latency time, in words [2]: statistically significant and clinically relevant delay
IVELT during washout periods, Median [2]: 1.75 min
IVELT during washout periods, Range [2]: (0.5-8) min
factor by which IVELT was increased, on average ([2]; versus pretreatment): 15

CN(C)CCCN1c2ccccc2CCc2ccc(Cl)cc21 [Clomipramine, clomipramine]
Side effects (no.): drowsiness [1]: 1
Side effects (no.): dry mouth [1]: 3
Side effects (no.): nausea [1]: 1
Side effects (no.): sleepiness [1]: 2
No. patients with side effects [1]: 7
patients with side effects (%) [1]: 25%
comparison between treatments in ejaculation latency time and sexual satisfaction score, in words [2]: more or less equivalent to each other
IVELT, Range [2]: (1-8) min
Anxiety score, Range [2]: (4-22)
Anxiety score, Median [2]: 11
median intravaginal ejaculation latency time [2]: 4 min
Sexual satisfaction score, Median [2]: 11
Sexual satisfaction score, Range [2]: (0-25)
IVELT, Median [2]: 4 min
patients with prolongation of IVELT (%) ([2]; of 31 men): 71%
delay of intravaginal ejaculation latency time, in words [2]: statistically significant and clinically relevant delay
IVELT during washout periods, Median [2]: 1 min
IVELT during washout periods, Range [2]: (0.5-1.5) min
